{"source": "patent US8796339B2", "about": "“Compositions comprising benzyl alcohol derivatives and further antimicrobial active compounds” (Symrise AG, priority 2008, dated 2014)", "tested_on": "Aspergillus niger ATCC 16404", "experiment": "Testing for adequate preservation (European Pharmacopoeia 5.1.3 preservative stress test) of inoculated cosmetic emulsions", "format": "cell-based", "conditions": "for cfu/ml at 0 days / cfu/ml at 2 days / cfu/ml at 7 days / cfu/ml at 14 days: 4-methylbenzyl alcohol 0.4%; for cfu/ml at 0 days / Aspergillus niger germ count at 0 days (initial, \"0 value\"): day 0; for cfu/ml at 2 days / Aspergillus niger germ count at 2 days: day 2; for cfu/ml at 7 days / Aspergillus niger germ count at 7 days: day 7; for cfu/ml at 14 days: day 14; for Aspergillus niger germ count at 0 days (initial, \"0 value\") / Aspergillus niger germ count at 2 days / Aspergillus niger germ count at 7 days: 1.0% product in O/W emulsion pH 5.5, B=1.0% 4-methylbenzyl alcohol", "method": "Testing for adequate preservation was carried out in accordance with the European Pharmacopoeia. Testing thus comprises contamination of the formulation, if possible in its final condition, with a prescribed inoculum of suitable microorganisms, storage of the inoculated formulation at a certain temperature, removal of samples from the container at certain intervals of time and determination of the number of microorganisms in the samples removed in this way. The preserving properties are adequate if, under the conditions of the test, a clear reduction or, where appropriate, no increase in the germ count results in the inoculated formulations after the prescribed times at the prescribed temperatures. Experimental details of the test procedure are described in the European Pharmacopoeia (ISBN 3-7692-2768-9; Supplement 2001 to the 3rd Edition, page 421-422, chapter 5.1.3). E: Aspergillus niger ATCC 16404 The initial germ count (cfu/ml; “0 value”) was in the range of from 230000 to 400000 in the various test series. For the tests for adequate preservation, a defined amount of the active compound combination according to the invention (product C) was incorporated into an O/W emulsion. For comparison purposes, the comparison products (product A and B) were incorporated into separate O/W emulsions. […] Phenonip® is a commercially available (Clariant, Nipa preservatives) and in cosmetic formulations widely used antimicrobial active mixture consisting of phenoxyethanol, methylparaben, ethylparaben, butylparaben, propylparaben and isobutylparaben. Testing for adequate preservation was carried out in accordance with the European Pharmacopoeia, as explained in Example 1a. The initial germ count (cfu/ml; “0 value”) was in the range of from 200,000 to 400,000 in the various test series.", "key": {"[1]": {"conditions": "Example 3, Table 9, dosage: 1,2-decanediol 1.0%, mixture 0.5% (title; listed as prints 1.5%)+0.2%"}, "[2]": {"conditions": "Example 3, Table 8, dosage: 1,2-hexanediol 3.0%, mixture 1.5%+0.2%"}, "[3]": {"conditions": "Example 3, Table 7, dosage: 1,2-pentanediol 4.0%, mixture 2.0%+0.2%"}, "[4]": {"conditions": "Example 1a, A=0.5% 1,2-hexanediol+0.5% 1,2-octanediol, C=0.4%+0.4%+0.2%"}, "[5]": {"conditions": "Example 1b, A=0.25% 1,2-hexanediol+0.75% 1,2-octanediol, C=0.2%+0.6%+0.2%"}, "[6]": {"conditions": "Example 2, A=1.0% 1,2-octanediol, C=0.8% 1,2-octanediol+0.2% 4-methylbenzyl alcohol"}}}
{"smiles": "CCCCCCCCC(O)CO", "note": "(centres unmarked) [1,2-Decanediol, reference compound]", "values": [{"measurement": "cfu/ml at 0 days", "setting": "[1]", "value": 250000, "unit": "cfu/ml"}, {"measurement": "cfu/ml at 2 days", "setting": "[1]", "value": 208000, "unit": "cfu/ml"}, {"measurement": "cfu/ml at 7 days", "setting": "[1]", "value": 302000, "unit": "cfu/ml"}]}
{"smiles": "CCCCC(O)CO", "note": "(centres unmarked) [1,2-Hexanediol, reference compound]", "values": [{"measurement": "cfu/ml at 0 days", "setting": "[2]", "value": 250000, "unit": "cfu/ml"}, {"measurement": "cfu/ml at 2 days", "setting": "[2]", "value": 212000, "unit": "cfu/ml"}, {"measurement": "cfu/ml at 7 days", "setting": "[2]", "value": 132000, "unit": "cfu/ml"}]}
{"smiles": "CCCC(O)CO", "note": "(centres unmarked) [1,2-Pentanediol, reference compound]", "values": [{"measurement": "cfu/ml at 0 days", "setting": "[3]", "value": 250000, "unit": "cfu/ml"}, {"measurement": "cfu/ml at 2 days", "setting": "[3]", "value": 246000, "unit": "cfu/ml"}, {"measurement": "cfu/ml at 7 days", "setting": "[3]", "value": 265000, "unit": "cfu/ml"}, {"measurement": "cfu/ml at 14 days", "setting": "[3]", "value": 246000, "unit": "cfu/ml"}]}
{"smiles": "Cc1ccc(CO)cc1", "note": "[4-Methylbenzyl alcohol, 4-methylbenzyl alcohol]", "values": [{"measurement": "Aspergillus niger germ count at 0 days (initial, \"0 value\")", "setting": "[4]", "value": 320000, "unit": "cfu/ml"}, {"measurement": "Aspergillus niger germ count at 2 days", "setting": "[4]", "value": 302000, "unit": "cfu/ml"}, {"measurement": "Aspergillus niger germ count at 7 days", "setting": "[4]", "value": 167000, "unit": "cfu/ml"}, {"measurement": "Aspergillus niger germ count at 0 days (initial, \"0 value\")", "setting": "[5]", "value": 320000, "unit": "cfu/ml"}, {"measurement": "Aspergillus niger germ count at 2 days", "setting": "[5]", "value": 302000, "unit": "cfu/ml"}, {"measurement": "Aspergillus niger germ count at 7 days", "setting": "[5]", "value": 167000, "unit": "cfu/ml"}, {"measurement": "Aspergillus niger germ count at 0 days (initial, \"0 value\")", "setting": "[6]", "value": 320000, "unit": "cfu/ml"}, {"measurement": "Aspergillus niger germ count at 2 days", "setting": "[6]", "value": 302000, "unit": "cfu/ml"}, {"measurement": "Aspergillus niger germ count at 7 days", "setting": "[6]", "value": 167000, "unit": "cfu/ml"}, {"measurement": "cfu/ml at 0 days", "setting": "[3]", "value": 250000, "unit": "cfu/ml"}, {"measurement": "cfu/ml at 2 days", "setting": "[3]", "value": 208000, "unit": "cfu/ml"}, {"measurement": "cfu/ml at 7 days", "setting": "[3]", "value": 302000, "unit": "cfu/ml"}, {"measurement": "cfu/ml at 14 days", "setting": "[3]", "value": 132000, "unit": "cfu/ml"}, {"measurement": "cfu/ml at 0 days", "setting": "[2]", "value": 250000, "unit": "cfu/ml"}, {"measurement": "cfu/ml at 2 days", "setting": "[2]", "value": 208000, "unit": "cfu/ml"}, {"measurement": "cfu/ml at 7 days", "setting": "[2]", "value": 302000, "unit": "cfu/ml"}, {"measurement": "cfu/ml at 0 days", "setting": "[1]", "value": 250000, "unit": "cfu/ml"}, {"measurement": "cfu/ml at 2 days", "setting": "[1]", "value": 208000, "unit": "cfu/ml"}, {"measurement": "cfu/ml at 7 days", "setting": "[1]", "value": 302000, "unit": "cfu/ml"}]}
